Data taken from the NIST ThermoML archive (doi:10.1016/j.tca.2012.03.028).

Assays:
[1] = Crystal; Differential scanning calorimeter
[2] = Molar enthalpy of transition or fusion; details: Crystal; Differential scanning calorimeter

Row | SMILES | Normal melting temperature [1] [°C] | Molar enthalpy of transition or fusion [2] [kcal/mol]
1 | c1ccc2ccccc2c1 [naphthalene] | 80.2 | 4.5
2 | O=C(O)C(c1ccccc1)c1ccccc1 [2,2-diphenylethanoic acid] | 147.2 | 7.45
3 | O=C(Oc1ccccc1)c1ccccc1O [phenyl salicylate] | 41.8 | 4.54
4 | CC(=O)Nc1ccccc1 [N-phenylethanamide] | 114.4 | 5.22
5 | O=C(C(=O)c1ccccc1)c1ccccc1 [1,2-diphenylethanedione] | 95 | 5.57
6 | O=C(O)c1ccccc1 [benzoic acid] | 122.4 | 4.3
7 | c1ccc(-c2ccccc2)cc1 [biphenyl] | 69.0 | 4.42
